The species named for assay [1] is Homo sapiens. The experiment in a line: Binding affinity to human IgG assessed as dissociation rate constant by SPR analysis. Background: SPR reads the build-up and loss of mass on a sensor chip optically.
Assay [2] is described as follows: Binding affinity to human IgG assessed as dissociation constant by SPR analysis.
Assay [3] is filed under the species Homo sapiens. In words: Binding affinity to human IgG assessed as association rate constant by SPR analysis.

Bridge positions count the residues as written; N and C are the ends. Square brackets hold non-standard residues; d marks the D form. Peptide text beside a SMILES is read from it. * marks the point of attachment. ξ: configuration not given here. NH(4-OH-benzyl) = Oc1ccc(CN*)cc1; ξ2Pal = NC(Cc1ccccn1)C(=O)O; ξ3Pal = NC(Cc1cccnc1)C(=O)O; ξ4Pal = NC(Cc1ccncc1)C(=O)O; ξ2Thi = NC(Cc1cccs1)C(=O)O; ξCha = NC(CC1CCCCC1)C(=O)O; ξOrn = NCCCC(N)C(=O)O; ξDab = NCCC(N)C(=O)O

What is called Kd is a measure of binding affinity in units of concentration.

As to `CC(=O)N[C@@H](CC(=O)O)C(=O)N[C@H]1CSSC[C@@H](C(=O)N[C@H](C(=O)N[C@@H](Cc2ccccc2)C(=O)N[C@H](Cc2ccccn2)C(N)=O)[C@@H](C)O)NC(=O)[C@H](Cc2c[nH]c3ccccc23)NC(=O)[C@H](C(C)C)NC(=O)[C@H](CC(C)C)NC(=O)[C@H](CCC(=O)O)NC(=O)CNC(=O)[C@H](CCCCN)NC(=O)[C@H](Cc2cnc[nH]2)NC(=O)[C@H](Cc2ccc(O)cc2)NC(=O)[C@H](C)NC1=O`, the Kdiss in assay [1] amounted to 0.344 s⁻¹. Besides, the Kd in assay [2] was 579 nM. In assay [3], the Ka turned out to be 593000 M⁻¹ s⁻¹.

For the molecule `CC(=O)N[C@@H](CC(=O)O)C(=O)N[C@H]1CSSC[C@@H](C(=O)N[C@H](C(=O)N[C@@H](Cc2ccccc2)C(=O)NC(Cc2ccccn2)C(=O)O)[C@@H](C)O)NC(=O)[C@H](Cc2c[nH]c3ccccc23)NC(=O)[C@H](C(C)C)NC(=O)[C@H](CC(C)C)NC(=O)[C@H](CCC(=O)O)NC(=O)CNC(=O)[C@H](CC(C)C)NC(=O)[C@H](Cc2cnc[nH]2)NC(=O)[C@H](Cc2ccc(O)cc2)NC(=O)[C@H](C)NC1=O` (some centres undefined) (Ac-DCAYHLGELVWCTF[ξ2Pal]-OH; disulfide 2-12), the Kdiss in assay [1] is 0.0033 s⁻¹. For the same molecule, the Kd in assay [2] was 2.48 nM. Also, the Ka in assay [3] came out at 1.35e+06 M⁻¹ s⁻¹.

Regarding `CC(=O)N[C@@H](CC(=O)O)C(=O)N[C@H]1CSSC[C@@H](C(=O)N[C@H](C(=O)N[C@@H](Cc2ccccc2)C(=O)N[C@@H](Cc2ccccc2)C(N)=O)[C@@H](C)O)NC(=O)[C@H](Cc2c[nH]c3ccccc23)NC(=O)[C@H](C(C)C)NC(=O)[C@H](CC(C)C)NC(=O)[C@H](CCC(=O)O)NC(=O)CNC(=O)[C@H](CCCCN)NC(=O)[C@H](Cc2cnc[nH]2)NC(=O)[C@H](Cc2ccc(O)cc2)NC(=O)[C@H](C)NC1=O` (Ac-DCAYHKGELVWCTFF-NH2; disulfide 2-12), in assay [1], the Kdiss was found to be 0.361 s⁻¹. In addition, in assay [2], the Kd was determined as 506 nM. Also, the Ka in assay [3] was found to be 713000 M⁻¹ s⁻¹.

Regarding `CC(=O)N[C@@H](CC(=O)O)C(=O)N[C@H]1CSSC[C@@H](C(=O)N[C@H](C(=O)N[C@@H](Cc2ccccc2)C(=O)NC(Cc2cccs2)C(N)=O)[C@@H](C)O)NC(=O)[C@H](Cc2c[nH]c3ccccc23)NC(=O)[C@H](C(C)C)NC(=O)[C@H](CC(C)C)NC(=O)[C@H](CCC(=O)O)NC(=O)CNC(=O)[C@H](CCCCN)NC(=O)[C@H](Cc2cnc[nH]2)NC(=O)[C@H](Cc2ccc(O)cc2)NC(=O)[C@H](C)NC1=O` (some centres undefined) (Ac-DCAYHKGELVWCTF[ξ2Thi]-NH2; disulfide 2-12), the Kdiss in assay [1] was 0.169 s⁻¹. Further, in assay [2], the Kd is 220 nM. Further, the Ka in assay [3] stood at 771000 M⁻¹ s⁻¹.

`CC(=O)N[C@@H](CC(=O)O)C(=O)N[C@H]1CSSC[C@@H](C(=O)N[C@H](C(=O)N[C@@H](Cc2ccccc2)C(=O)NC(Cc2ccccn2)C(N)=O)[C@@H](C)O)NC(=O)[C@H](Cc2c[nH]c3ccccc23)NC(=O)[C@H](C(C)C)NC(=O)[C@H](CC(C)C)NC(=O)[C@H](CCC(=O)O)NC(=O)CNC(=O)[C@H](CC(C)C)NC(=O)[C@H](Cc2cnc[nH]2)NC(=O)[C@H](Cc2ccc(O)cc2)NC(=O)[C@H](C)NC1=O` (mixture of isomers): in assay [1], the Kdiss stood at 0.00326 s⁻¹. Besides, the Kd in assay [2] stood at 2.19 nM. In addition, in assay [3], the Ka worked out at 1.49e+06 M⁻¹ s⁻¹.

For `CC(=O)N[C@@H](CC(=O)O)C(=O)N[C@H]1CSSC[C@@H](C(=O)N[C@H](C(=O)N[C@@H](Cc2ccccc2)C(=O)N[C@@H](C)C(N)=O)[C@@H](C)O)NC(=O)[C@H](Cc2c[nH]c3ccccc23)NC(=O)[C@H](C(C)C)NC(=O)[C@H](CC(C)C)NC(=O)[C@H](CCC(=O)O)NC(=O)CNC(=O)[C@H](CCCCN)NC(=O)[C@H](Cc2cnc[nH]2)NC(=O)[C@H](Cc2ccc(O)cc2)NC(=O)[C@H](C)NC1=O` (Ac-DCAYHKGELVWCTFA-NH2; disulfide 2-12), in assay [1], the Kdiss was determined as 0.477 s⁻¹. Moreover, the Kd in assay [2] is 841 nM. In addition, the Ka in assay [3] was found to be 567000 M⁻¹ s⁻¹.

For the molecule `CC(=O)N[C@@H](CC(=O)O)C(=O)N[C@H]1CSSC[C@@H](C(=O)N[C@H](C(=O)N[C@@H](Cc2ccccc2)C(=O)NC(CCCN)C(N)=O)[C@@H](C)O)NC(=O)[C@H](Cc2c[nH]c3ccccc23)NC(=O)[C@H](C(C)C)NC(=O)[C@H](CC(C)C)NC(=O)[C@H](CCC(=O)O)NC(=O)CNC(=O)[C@H](CCCCN)NC(=O)[C@H](Cc2cnc[nH]2)NC(=O)[C@H](Cc2ccc(O)cc2)NC(=O)[C@H](C)NC1=O` (some centres undefined) (Ac-DCAYHKGELVWCTF[ξOrn]-NH2; disulfide 2-12), in assay [2], the Kd worked out at 710 nM.

On to `CC(=O)N[C@@H](CC(=O)O)C(=O)N[C@H]1CSSC[C@@H](C(=O)N[C@H](C(=O)N[C@@H](Cc2ccccc2)C(=O)NC(Cc2ccccn2)C(N)=O)[C@@H](C)O)NC(=O)[C@H](Cc2c[nH]c3ccccc23)NC(=O)[C@H](C(C)C)NC(=O)[C@H](CC(C)C)NC(=O)[C@H](CCC(=O)O)NC(=O)CNC(=O)[C@H](CCCCN)NC(=O)[C@H](Cc2cnc[nH]2)NC(=O)[C@H](Cc2ccc(O)cc2)NC(=O)[C@H](C)NC1=O` (mixture of isomers), for which, in assay [1], the Kdiss is 0.0579 s⁻¹. The Kd in assay [2] stood at 75.7 nM. Further, in assay [3], the Ka stood at 764000 M⁻¹ s⁻¹.

With `CC(=O)N[C@@H](CC(=O)O)C(=O)N[C@H]1CSSC[C@@H](C(=O)N[C@H](C(=O)N[C@@H](Cc2ccccc2)C(=O)NC(Cc2ccncc2)C(N)=O)[C@@H](C)O)NC(=O)[C@H](Cc2c[nH]c3ccccc23)NC(=O)[C@H](C(C)C)NC(=O)[C@H](CC(C)C)NC(=O)[C@H](CCC(=O)O)NC(=O)CNC(=O)[C@H](CCCCN)NC(=O)[C@H](Cc2cnc[nH]2)NC(=O)[C@H](Cc2ccc(O)cc2)NC(=O)[C@H](C)NC1=O` (some centres undefined) (Ac-DCAYHKGELVWCTF[ξ4Pal]-NH2; disulfide 2-12), the Kdiss in assay [1] was 0.389 s⁻¹. The Kd in assay [2] came to 533 nM. Besides, the Ka in assay [3] came to 730000 M⁻¹ s⁻¹.

With `CC(=O)N[C@@H](CC(=O)O)C(=O)N[C@H]1CSSC[C@@H](C(=O)N[C@H](C(=O)N[C@@H](Cc2ccccc2)C(=O)N[C@@H](Cc2c[nH]c3ccccc23)C(N)=O)[C@@H](C)O)NC(=O)[C@H](Cc2c[nH]c3ccccc23)NC(=O)[C@H](C(C)C)NC(=O)[C@H](CC(C)C)NC(=O)[C@H](CCC(=O)O)NC(=O)CNC(=O)[C@H](CCCCN)NC(=O)[C@H](Cc2cnc[nH]2)NC(=O)[C@H](Cc2ccc(O)cc2)NC(=O)[C@H](C)NC1=O` (Ac-DCAYHKGELVWCTFW-NH2; disulfide 2-12), the Kd in assay [2] was determined as 1220 nM.

For the molecule `CC(=O)N[C@@H](CC(=O)O)C(=O)N[C@H]1CSSC[C@@H](C(=O)N[C@H](C(=O)N[C@@H](Cc2ccccc2)C(=O)N[C@@H](Cc2cnc[nH]2)C(=O)NCc2ccc(O)cc2)[C@@H](C)O)NC(=O)[C@H](Cc2c[nH]c3ccccc23)NC(=O)[C@H](C(C)C)NC(=O)[C@H](CC(C)C)NC(=O)[C@H](CCC(=O)O)NC(=O)CNC(=O)[C@H](CCCCN)NC(=O)[C@H](Cc2cnc[nH]2)NC(=O)[C@H](Cc2ccc(O)cc2)NC(=O)[C@H](C)NC1=O` (Ac-DCAYHKGELVWCTFH-{NH(4-OH-benzyl)}; disulfide 2-12), the Kdiss in assay [1] stood at 0.122 s⁻¹. The Kd in assay [2] was found to be 203 nM. In addition, in assay [3], the Ka worked out at 603000 M⁻¹ s⁻¹.

Regarding `CC(=O)N[C@@H](CC(=O)O)C(=O)N[C@H]1CSSC[C@@H](C(=O)N[C@H](C(=O)N[C@@H](Cc2ccccc2)C(=O)NC(Cc2ccccn2)C(=O)O)[C@@H](C)O)NC(=O)[C@H](Cc2c[nH]c3ccccc23)NC(=O)[C@H](C(C)C)NC(=O)[C@H](CC(C)C)NC(=O)[C@H](CCC(=O)O)NC(=O)CNC(=O)[C@H](CCCCN)NC(=O)[C@H](Cc2cnc[nH]2)NC(=O)[C@H](Cc2ccc(O)cc2)NC(=O)[C@H](C)NC1=O` (mixture of isomers), the Kdiss in assay [1] was found to be 0.0674 s⁻¹. For the same molecule, in assay [2], the Kd came to 97.6 nM. Further, in assay [3], the Ka turned out to be 690000 M⁻¹ s⁻¹.

Regarding `CC(=O)N[C@@H](CC(=O)O)C(=O)N[C@H]1CSSC[C@@H](C(=O)N[C@H](C(=O)N[C@@H](Cc2ccccc2)C(=O)N[C@H](Cc2ccccn2)C(N)=O)[C@@H](C)O)NC(=O)[C@H](Cc2c[nH]c3ccccc23)NC(=O)[C@H](C(C)C)NC(=O)[C@H](CC(C)C)NC(=O)[C@H](CCC(=O)O)NC(=O)CNC(=O)[C@H](CC(C)C)NC(=O)[C@H](Cc2cnc[nH]2)NC(=O)[C@H](Cc2ccc(O)cc2)NC(=O)[C@H](C)NC1=O`, in assay [1], the Kdiss stood at 0.0304 s⁻¹. Further, the Kd in assay [2] was determined as 23 nM. For the same molecule, the Ka in assay [3] stood at 1.32e+06 M⁻¹ s⁻¹.

In the case of `CC(=O)N[C@@H](CC(=O)O)C(=O)N[C@H]1CSSC[C@@H](C(=O)N[C@H](C(=O)N[C@@H](Cc2ccccc2)C(=O)NC(Cc2cccnc2)C(N)=O)[C@@H](C)O)NC(=O)[C@H](Cc2c[nH]c3ccccc23)NC(=O)[C@H](C(C)C)NC(=O)[C@H](CC(C)C)NC(=O)[C@H](CCC(=O)O)NC(=O)CNC(=O)[C@H](CCCCN)NC(=O)[C@H](Cc2cnc[nH]2)NC(=O)[C@H](Cc2ccc(O)cc2)NC(=O)[C@H](C)NC1=O` (some centres undefined) (Ac-DCAYHKGELVWCTF[ξ3Pal]-NH2; disulfide 2-12), in assay [1], the Kdiss came out at 0.425 s⁻¹. Besides, the Kd in assay [2] came to 550 nM. For the same molecule, in assay [3], the Ka came to 772000 M⁻¹ s⁻¹.

With `CC(=O)N[C@@H](CC(=O)O)C(=O)N[C@H]1CSSC[C@@H](C(=O)N[C@H](C(=O)N[C@@H](Cc2ccccc2)C(=O)NC(CC2CCCCC2)C(N)=O)[C@@H](C)O)NC(=O)[C@H](Cc2c[nH]c3ccccc23)NC(=O)[C@H](C(C)C)NC(=O)[C@H](CC(C)C)NC(=O)[C@H](CCC(=O)O)NC(=O)CNC(=O)[C@H](CCCCN)NC(=O)[C@H](Cc2cnc[nH]2)NC(=O)[C@H](Cc2ccc(O)cc2)NC(=O)[C@H](C)NC1=O` (some centres undefined) (Ac-DCAYHKGELVWCTF[ξCha]-NH2; disulfide 2-12), the Kdiss in assay [1] is 0.128 s⁻¹. Besides, the Kd in assay [2] turned out to be 165 nM. In assay [3], the Ka is 776000 M⁻¹ s⁻¹.

Consider `CC(=O)N[C@@H](CC(=O)O)C(=O)N[C@H]1CSSC[C@@H](C(=O)N[C@H](C(=O)N[C@@H](Cc2ccccc2)C(=O)NC(CCN)C(N)=O)[C@@H](C)O)NC(=O)[C@H](Cc2c[nH]c3ccccc23)NC(=O)[C@H](C(C)C)NC(=O)[C@H](CC(C)C)NC(=O)[C@H](CCC(=O)O)NC(=O)CNC(=O)[C@H](CCCCN)NC(=O)[C@H](Cc2cnc[nH]2)NC(=O)[C@H](Cc2ccc(O)cc2)NC(=O)[C@H](C)NC1=O` (some centres undefined) (Ac-DCAYHKGELVWCTF[ξDab]-NH2; disulfide 2-12), for which the Kdiss in assay [1] turned out to be 0.749 s⁻¹. Besides, the Kd in assay [2] was determined as 1020 nM. For the same molecule, the Ka in assay [3] was 731000 M⁻¹ s⁻¹.

(Values after ChEMBL document CHEMBL4311936, “Synthesis and structure-activity relationship studies of IgG-binding peptides focused on the C-terminal histidine residue” (Medchemcomm, 2019).)
